The subject of one experiment is P388/ADR leukemia. In words: NCI tumour cell line growth inhibition, 48 h.
The next experiment has as its system P388 leukemia. Put plainly: NCI tumour cell line growth inhibition, 48 h.

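1) Cells in 96-well plates. 2) Compound, 48 h, 5 concentrations. 3) Linear interpolation between surrounding doses. 4) Unreached endpoint = highest concentration. TGI marks complete inhibition of growth.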

Consider `CC1=C2C3OC(=O)C(C)C3CCC2(C)C=CC1=Nc1ccccc1` (centres undefined), for which the TGI in the experiment with P388/ADR leukemia and in the experiment on P388 leukemia was greater than 100 µM each time.
In the case of `CN(C(=O)c1ccc(OCCCC(=O)O)c(Cl)c1Cl)C1CCCC1`, the TGI in the experiment on P388/ADR leukemia and in the experiment with P388 leukemia was greater than 100 µM in each case.

Values taken from PubChem BioAssay (NCI).
